Results taken from ChEMBL document CHEMBL3886262, “Azetidine compounds, compositions and methods of use” (2015).

Molecular target: T1, Bifunctional epoxide hydrolase 2 (Homo sapiens, UniProt P34913)
T1 sequence (P34913 whole entry): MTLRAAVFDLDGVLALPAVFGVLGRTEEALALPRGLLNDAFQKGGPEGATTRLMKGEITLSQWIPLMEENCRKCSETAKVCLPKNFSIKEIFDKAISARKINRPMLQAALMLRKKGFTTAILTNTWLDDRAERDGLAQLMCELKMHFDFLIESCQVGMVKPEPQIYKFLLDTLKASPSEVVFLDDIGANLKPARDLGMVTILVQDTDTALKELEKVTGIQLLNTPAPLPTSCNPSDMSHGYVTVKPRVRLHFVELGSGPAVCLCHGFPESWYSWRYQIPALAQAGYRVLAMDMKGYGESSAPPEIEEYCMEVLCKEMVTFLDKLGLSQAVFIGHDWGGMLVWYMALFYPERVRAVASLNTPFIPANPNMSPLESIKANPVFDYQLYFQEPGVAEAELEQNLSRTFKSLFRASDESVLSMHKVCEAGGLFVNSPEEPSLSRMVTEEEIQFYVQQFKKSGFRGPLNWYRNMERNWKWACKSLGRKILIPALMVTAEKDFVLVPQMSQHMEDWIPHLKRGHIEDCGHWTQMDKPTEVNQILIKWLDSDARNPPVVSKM
Assay: Enzyme Assay: Test compounds (1.6 mM stock in DMSO) were diluted 3 fold in series in DMSO and 0.8 microliters per well were added into 384-well NBS microplates (Corning). Resorufin epoxide substrate (20 uM stock in DMSO) was diluted to 5 μM with Assay Buffer (25 mM bis-Tris-HCl, pH 7.0, 1 mM DTT and 0.2 mg/ml BSA) and 8 microliters per well were added to the microplates. Thirty two microliters per well of 3.6 nM soluble epoxide hydrolase in Assay Buffer was then added. The samples were incubated at room temperature and assay signals were monitored by reading excitation at 530 nm and emission fluorescence at 590 nm on a PlateVision (Zeiss) reader every 2 minutes for 8 times.

O=C(NCc1ccc(Cl)cc1Cl)N1CC2(C1)CN(S(=O)(=O)c1ccccc1)C2
IC50: 79 nM
